Reference: PubChem BioAssay AID623883 (Johns Hopkins Ion Channel Center, 2012)
The source made the active and inactive calls.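 Rule for the calls: active = peak hERG inhibition over 30% at some tested dose, together with a fitted dose response curve; inactive = no hERG inhibition at any dose, or no curve fitted.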

The compounds below were run against Voltage-gated inwardly rectifying potassium channel KCNH2 (Homo sapiens) (UniProt Q12809) (assay: hERG channel inhibition, SAR follow-up, selectivity assay for KCNK9 inhibitor project, cell-based, FluxOR thallium flux, concentration-response, set 4 (AID 623883)). Settings: hERG-expressing cells, FluxOR thallium flux fluorescence.
Chain of Voltage-gated inwardly rectifying potassium channel KCNH2 (Homo sapiens) (Q12809 whole entry, looked up): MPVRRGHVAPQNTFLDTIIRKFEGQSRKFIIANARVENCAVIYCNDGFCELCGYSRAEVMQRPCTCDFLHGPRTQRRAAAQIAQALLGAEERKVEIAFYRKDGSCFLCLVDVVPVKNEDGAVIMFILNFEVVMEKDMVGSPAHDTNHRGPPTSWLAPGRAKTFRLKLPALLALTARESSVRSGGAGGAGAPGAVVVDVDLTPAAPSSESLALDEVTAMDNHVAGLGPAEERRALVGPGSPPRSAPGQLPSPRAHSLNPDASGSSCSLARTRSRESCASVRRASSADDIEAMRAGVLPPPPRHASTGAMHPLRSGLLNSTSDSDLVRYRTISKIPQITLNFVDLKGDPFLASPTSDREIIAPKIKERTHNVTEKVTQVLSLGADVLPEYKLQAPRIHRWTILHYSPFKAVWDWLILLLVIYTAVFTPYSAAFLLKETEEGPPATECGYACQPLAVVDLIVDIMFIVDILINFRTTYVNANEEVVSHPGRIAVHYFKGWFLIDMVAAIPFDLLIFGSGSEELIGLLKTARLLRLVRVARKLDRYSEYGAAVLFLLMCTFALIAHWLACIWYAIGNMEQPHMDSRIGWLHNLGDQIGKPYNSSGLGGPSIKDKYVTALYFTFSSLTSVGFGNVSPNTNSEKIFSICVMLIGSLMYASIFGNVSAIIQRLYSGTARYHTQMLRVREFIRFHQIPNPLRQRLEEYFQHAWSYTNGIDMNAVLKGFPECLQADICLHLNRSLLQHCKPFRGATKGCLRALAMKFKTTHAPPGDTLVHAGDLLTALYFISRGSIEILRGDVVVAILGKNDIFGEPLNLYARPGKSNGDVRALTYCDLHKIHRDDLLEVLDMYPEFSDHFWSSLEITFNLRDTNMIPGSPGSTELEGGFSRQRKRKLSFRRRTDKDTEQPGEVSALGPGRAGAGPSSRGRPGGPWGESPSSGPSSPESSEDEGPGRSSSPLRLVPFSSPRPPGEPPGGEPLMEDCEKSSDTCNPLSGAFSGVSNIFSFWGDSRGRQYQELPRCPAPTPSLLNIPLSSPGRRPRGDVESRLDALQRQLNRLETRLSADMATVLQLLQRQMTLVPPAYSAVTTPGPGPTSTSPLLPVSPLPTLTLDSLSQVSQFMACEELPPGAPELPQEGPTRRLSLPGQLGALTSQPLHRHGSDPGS

SMILES	IC50 [µM]
COc1ccc(CSc2nnc(-c3ccco3)n2C(C)C2CC3CCC2C3)cc1OC (stereo not given)	18.2
CC(C1CC2CCC1C2)n1c(SCCc2cccc(O)c2)nnc1-c1ccco1 (stereo not given)	8.05
COc1ccc(NC(=O)CSc2nnc(-c3ccco3)n2C(C)C2CC3CCC2C3)cc1OC (stereo not given)	25.8
COc1cccc(CCSc2nnc(-c3ccco3)n2C(C)C2CC3CCC2C3)c1 (stereo not given)	4.52
C[C@H]([C@@H]1CC2CC[C@H]1C2)n1c(-c2ccsc2)n[nH]c1=S	0.839
COc1cccc(-c2nnc(SSc3nnc(-c4cccc(OC)c4)n3C(C)C3CC4CCC3C4)n2C(C)C2CC3CCC2C3)c1 (stereo not given)	0.398
CCCC(=O)C1CCN(c2ncnc3c2CN(C(=O)c2ccc(-c4ccccc4)cc2)CC3)CC1	7.68
CC(C1CC2CCC1C2)n1c(SCCc2ccccn2)nnc1-c1ccco1 (stereo not given)	12.6
COc1ccc(C(=O)CCSc2nnc(-c3ccco3)n2C(C)C2CC3CCC2C3)cc1OC (stereo not given)	15.8

Same assay, conditions: hERG-expressing cells, at 30 µM (top of the series)

SMILES	fluorescence ratio, lower = inhibition
C[C@@H]([C@@H]1CC2CC[C@H]1C2)n1c(-c2ccco2)n[nH]c1=S	inactive
CC(C1CC2CCC1C2)n1c(-c2ccco2)nn(CCc2ccncc2)c1=S (stereo not given)	inactive
C[C@H]([C@@H]1CC2CC[C@H]1C2)n1c(-c2ccco2)n[nH]c1=S	inactive
COc1cccc(-c2n[nH]c(=S)n2[C@H](C)C2CCCCC2)c1	inactive
C[C@H](C1CCCCC1)n1c(-c2ccccc2F)n[nH]c1=S	inactive
C[C@H]([C@@H]1CC2CC[C@H]1C2)n1c(-c2ccsc2)n[nH]c1=S	inactive
CC(C1CC2CCC1C2)n1c(SCC(=O)N2CCN(C)CC2)nnc1-c1ccco1 (stereo not given)	inactive
CC(C1CC2CCC1C2)n1c(SCCN2CCOCC2)nnc1-c1ccco1 (stereo not given)	inactive
CC(C1C[C@H]2CCC1C2)n1c(-c2ccsc2)n[nH]c1=S (stereo not given in full)	inactive
C[C@H](C1CCCCC1)n1c(-c2ccsc2)n[nH]c1=S	inactive
C[C@@H]([C@@H]1CC2CC[C@H]1C2)n1c(-c2ccsc2)n[nH]c1=S	inactive
CC([C@@H]1CC2CC[C@H]1C2)n1c(-c2ccsc2)n[nH]c1=S (stereo not given in full)	inactive
C[C@H]([C@@H]1CC2CC[C@H]1C2)n1c(-c2ccccc2F)n[nH]c1=S	inactive
COc1cccc(-c2n[nH]c(=S)n2[C@H](C)[C@@H]2CC3CC[C@H]2C3)c1	inactive
CC(C1CC2CCC1C2)n1c(N)nnc1-c1ccco1 (stereo not given)	inactive
CC(C1CCN(C)CC1)n1c(-c2ccco2)n[nH]c1=S (stereo not given)	inactive
